Assay results: ChEMBL document CHEMBL3045651, “Nymania-3: a bioactive triterpenoid from Dysoxylum malabaricum” (1999)

Assays:
Assay type in all cases: functional
Olepa ricini [1] = experiment: Antifeedant activity against Olepa ricini fed on compound pre-treated castor leaves assessed as insect mortality at 0.5 ug/cm2 by dual choice leaf disk method (reference value: 4%); settings: foliar
Olepa ricini [2] = experiment: Antifeedant activity against Olepa ricini fed on compound pre-treated castor leaves assessed as pupal weight at 0.5 ug/cm2 by dual choice leaf disk method (reference value: 476 +/- 10.6 mg)
Olepa ricini [3] = experiment: Antifeedant activity against Olepa ricini fed on compound pre-treated castor leaves assessed as duration of development of pupa at 0.5 ug/cm2 by dual choice leaf disk method (reference value: 7.5 +/- 0.3 days)
Olepa ricini [4] = experiment: Antifeedant activity against Olepa ricini fed on compound pre-treated castor leaves assessed as duration of development of fifth-instar larvae at 0.5 ug/cm2 by dual choice leaf disk method (reference value: 4.5 +/- 0.4 days)
Olepa ricini [5] = experiment: Antifeedant activity against Olepa ricini fed on compound pre-treated castor leaves assessed as duration of development of fourth-instar larvae at 0.5 ug/cm2 by dual choice leaf disk method (reference value: 7.5 +/- 0.2 days)
Olepa ricini [6] = experiment: Antifeedant activity against Olepa ricini fed on compound pre-treated castor leaves assessed as duration of development of third-instar larvae at 0.5 ug/cm2 by dual choice leaf disk method (reference value: 4.5 +/- 0.7 days)
Olepa ricini [7] = experiment: Antifeedant activity against Olepa ricini fed on compound pre-treated castor leaves assessed as percent feeding index at 50 ug/cm2 by dual choice leaf disk method
Olepa ricini [8] = experiment: Antifeedant activity against Olepa ricini fed on compound pre-treated castor leaves assessed as percent feeding index at 10 ug/cm2 by dual choice leaf disk method
Olepa ricini [9] = experiment: Antifeedant activity against Olepa ricini fed on compound pre-treated castor leaves assessed as percent feeding index at 5 ug/cm2 by dual choice leaf disk method
Olepa ricini [10] = experiment: Antifeedant activity against Olepa ricini fed on compound pre-treated castor leaves assessed as percent feeding index at 1 ug/cm2 by dual choice leaf disk method
Olepa ricini [11] = experiment: Antifeedant activity against Olepa ricini fed on compound pre-treated castor leaves assessed as insect mortality at 1 ug/cm2 by dual choice leaf disk method (reference value: 4%); settings: foliar
Olepa ricini [12] = experiment: Antifeedant activity against Olepa ricini fed on compound pre-treated castor leaves assessed as pupal weight at 1 ug/cm2 by dual choice leaf disk method (reference value: 476 +/- 10.6 mg)
Olepa ricini [13] = experiment: Antifeedant activity against Olepa ricini fed on compound pre-treated castor leaves assessed as duration of development of pupa at 1 ug/cm2 by dual choice leaf disk method (reference value: 7.5 +/- 0.3 days)
Olepa ricini [14] = experiment: Antifeedant activity against Olepa ricini fed on compound pre-treated castor leaves assessed as duration of development of fifth-instar larvae at 1 ug/cm2 by dual choice leaf disk method (reference value: 4.5 +/- 0.4 days)
Olepa ricini [15] = experiment: Antifeedant activity against Olepa ricini fed on compound pre-treated castor leaves assessed as duration of development of fourth-instar larvae at 1 ug/cm2 by dual choice leaf disk method (reference value: 7.5 +/- 0.2 days)
Olepa ricini [16] = experiment: Antifeedant activity against Olepa ricini fed on compound pre-treated castor leaves assessed as duration of development of third-instar larvae at 1 ug/cm2 by dual choice leaf disk method (reference value: 4.5 +/- 0.7 days)

C/C=C(\C)C(=O)O[C@H]1C[C@@H](OC(C)=O)[C@@]2(C(=O)OC)CO[C@H]3[C@@H](O)[C@@](C)([C@]45O[C@@]4(C)[C@H]4C[C@@H]5O[C@@H]5OC=C[C@@]54O)[C@H]4[C@]1(CO[C@]4(O)C(=O)OC)[C@@H]32 [AZADIRACTIN]
mortality at 0.5 µg/cm2 (Olepa ricini [1]): 16%
Activity (Olepa ricini [2]): 344 mg
Time (Olepa ricini [3]): 7.4 days
Time (Olepa ricini [4]): 5.7 days
Time (Olepa ricini [5]): 8.6 days
Time (Olepa ricini [6]): 7 days
FI (Olepa ricini [7]): 10%
FI (Olepa ricini [8]): 12.5%
FI (Olepa ricini [9]): 15.6%
FI (Olepa ricini [10]): 20.8%

C=C1[C@@H]([C@@]2(C)C=CC(=O)OC(C)(C)[C@@H]2CC(=O)OC)[C@@H](OC(C)=O)[C@H](OC(C)=O)[C@@]2(C)[C@@H](c3ccoc3)C[C@H]3O[C@]132 [NYMANIA]
mortality at 1 µg/cm2 (Olepa ricini [11]): 16%
Activity (Olepa ricini [12]): 428 mg
Time (Olepa ricini [13]): 7.4 days
Time (Olepa ricini [14]): 5.3 days
Time (Olepa ricini [15]): 8.8 days
Time (Olepa ricini [16]): 6.8 days
FI (Olepa ricini [7]): 19.5%
FI (Olepa ricini [8]): 23.4%
FI (Olepa ricini [9]): 30%
FI (Olepa ricini [10]): 33.5%
